Publication PMC3038857, “Using Nuclear Receptor Activity to Stratify Hepatocarcinogens” (PLoS ONE, 2011)

Key:
[1] = test system: CYP3A4; assay: CLZD_CYP3A4: Change in expression of CYP3A4 (primary human hepatocytes); assay type: cell-based; settings: 24 hr
Method in brief: (§1)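 Read-out: mRNA change by multiplexed quantitative nuclease protection assay. Primary human hepatocytes; 5 concentrations, 0.004-40 µM; exposures 6, 24, 48 hr.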

[2] = test system: CYP1A2; assay: CLZD_CYP1A2: Change in expression of CYP1A2 (primary human hepatocytes); assay type: cell-based; settings: 24 hr
Method in brief: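 Cultured primary human hepatocytes treated with chemicals for 6, 24 or 48 hr across five concentrations spanning 0.004-40 µM, then transcript level measured by quantitative nuclease protection in a multiplexed format.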

[3] = biological target: T1, ERa (ESR1) (Homo sapiens, UniProt P03372); assay: NCGC_ERalpha_Agonist: GAL4 BLAM Reporter gene assay: ERa; assay type: cell-based; settings: agonist mode
T1 construct: expressed in transfected cells; host or cells: HEK293
T1 sequence (P03372 whole entry, the tested form may be a part): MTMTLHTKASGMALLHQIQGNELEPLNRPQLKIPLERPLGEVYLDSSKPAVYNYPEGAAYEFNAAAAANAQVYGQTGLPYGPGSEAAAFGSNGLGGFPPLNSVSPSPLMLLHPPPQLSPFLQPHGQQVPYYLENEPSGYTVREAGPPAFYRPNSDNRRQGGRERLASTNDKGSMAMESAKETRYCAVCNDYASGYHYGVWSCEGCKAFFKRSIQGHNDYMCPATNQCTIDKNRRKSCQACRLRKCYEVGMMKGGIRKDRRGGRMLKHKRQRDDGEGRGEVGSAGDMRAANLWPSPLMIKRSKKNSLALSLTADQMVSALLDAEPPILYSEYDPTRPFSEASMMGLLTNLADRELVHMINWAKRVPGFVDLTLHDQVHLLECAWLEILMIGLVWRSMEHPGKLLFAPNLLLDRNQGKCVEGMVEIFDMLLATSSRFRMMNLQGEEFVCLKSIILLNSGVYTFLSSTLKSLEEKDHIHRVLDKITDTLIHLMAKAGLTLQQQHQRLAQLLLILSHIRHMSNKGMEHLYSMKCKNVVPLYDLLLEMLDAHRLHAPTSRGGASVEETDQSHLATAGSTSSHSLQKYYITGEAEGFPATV
Procedure: These assays measure binding constants and enzyme inhibition values for nuclear receptors. The targets include [drawing 67] , [drawing 68] , [drawing 69] , [drawing 70] , [drawing 71] , [drawing 72] , [drawing 73] , [drawing 74] , [drawing 75] and [drawing 76] . Each of the nuclear receptor targets was measured in agonist mode. Assays were run at the NIH Chemical Genomics Center (Rockville, MD).
Cell-based HTS Assays: These assays measuring binding constants and enzyme inhibition values for nuclear receptors. The targets include AR, ER, FXR, LXR, PPARα, PPARδ, PPARγ, RXRα, RXRβ and PXR. Each of the nuclear receptor targets was measured in both agonist and antagonist mode, but the antagonist data is still undergoing analysis due to possible interference between cytotoxicity and assay activity, so antagonist mode data were not used in the present analysis. Assays were run at the NIH Chemical Genomics Center (Rockville, MD) as part of the Tox21 collaboration. […] The R^2 was required to be ≥0.5. Values where only the highest concentration exceeded 50% activity were excluded to eliminate weak or false positives. Detailed description of the methods, data and analysis methods for this dataset will be presented in a separate publication.

[4] = biological target: T2, PXR (NR1I2) (Homo sapiens, UniProt O75469); assay: ATG_PXRE_CIS: Factorial reporter gene assay (HepG2); assay type: cell-based; design: endogenous in cells; host or cells: HepG2
T2 sequence (O75469 1-434): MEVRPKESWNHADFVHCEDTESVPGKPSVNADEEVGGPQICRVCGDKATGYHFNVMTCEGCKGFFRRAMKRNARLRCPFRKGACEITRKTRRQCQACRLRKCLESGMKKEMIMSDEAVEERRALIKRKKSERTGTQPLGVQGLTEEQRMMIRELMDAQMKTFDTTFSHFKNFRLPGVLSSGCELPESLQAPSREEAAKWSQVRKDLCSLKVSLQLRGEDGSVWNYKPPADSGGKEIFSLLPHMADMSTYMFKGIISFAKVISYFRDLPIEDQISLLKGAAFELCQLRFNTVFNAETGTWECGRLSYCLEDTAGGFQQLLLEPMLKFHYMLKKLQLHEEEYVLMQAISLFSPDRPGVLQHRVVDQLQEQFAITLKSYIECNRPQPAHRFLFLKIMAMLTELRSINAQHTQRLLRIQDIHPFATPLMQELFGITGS
Method in brief: (§2)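 Mammalian one-hybrid trans reporters (25 MRTUs) measured ERRg, FXR and PPARg; PXRE used cis reporters from a 48-site MRTU library. Both were run in HepG2. Dosing: seven concentrations, MTC as the highest, three-fold dilution series.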

[5] = biological target: T3, ESR1 (estrogen receptor 1) (Homo sapiens, UniProt P03372); assay: ATG_ERE_CIS: Factorial reporter gene assay (HepG2); assay type: cell-based
T3 construct: expressed in transfected cells; host or cells: HepG2
T3 sequence (P03372 whole entry): as the sequence (P03372 whole entry, the tested form may be a part) above
Procedure: (§3) A multiple reporter transcription unit (MRTU) library consisting of 48 transcription factor binding sites was transfected into the HepG2 human liver hepatoma cell line. In addition to the cis-acting reporter genes (CIS), a modification of the approach was used to generate a trans-system (TRANS) with a mammalian one-hybrid assay consisting of an additional 25 MRTU library reporting the activity of nuclear receptor super-family members. […] These assays were performed by Attagene Inc. (Morrisville NC) under contract to EPA.
(§4) In addition to the cis-acting reporter genes (CIS), a modification of the approach was used to generate a trans-system (TRANS) with a mammalian one-hybrid assay consisting of an additional 25 MRTU library reporting the activity of nuclear receptor super-family members. […] Chemicals were then tested in the CIS and TRANS assays at seven concentrations starting at the MTC and followed by three-fold serial dilutions. These assays were performed by Attagene Inc. (Morrisville NC) under contract to EPA. Detailed description of the methods, data and analysis methods for this dataset will be presented in a separate publication.

[6] = test system: CYP2B6; assay: CLZD_CYP2B6: Change in expression of CYP2B6 (primary human hepatocytes); assay type: cell-based; settings: 24 hr
Method in brief: as §1

[7] = biological target: T3, ESR1 (estrogen receptor 1); assay: ATG_ERa_TRANS: Factorial reporter gene assay (HepG2); assay type: cell-based
Procedure: as §3, §4

[8] = biological target: T1, ERa (ESR1); assay: NCGC_ERalpha_Antagonist: GAL4 BLAM Reporter gene assay: ERa; assay type: cell-based; settings: antagonist mode
[9] = test system: Rat Liver; settings: chronic study, rat liver; ref ToxRefDB; cited from earlier work
[10] = test system: Rat Liver; settings: chronic study, rat liver; ref ToxRefDB; cited from earlier work; remark: listed apart in the source
[11] = biological target: T4, CAR (NR1I3) (Homo sapiens, UniProt Q14994); assay: ATG_PBREM_CIS: Factorial reporter gene assay (HepG2); assay type: cell-based; design: endogenous in cells; host or cells: HepG2; settings: HepG2 reporter
T4 sequence (Q14994 1-352): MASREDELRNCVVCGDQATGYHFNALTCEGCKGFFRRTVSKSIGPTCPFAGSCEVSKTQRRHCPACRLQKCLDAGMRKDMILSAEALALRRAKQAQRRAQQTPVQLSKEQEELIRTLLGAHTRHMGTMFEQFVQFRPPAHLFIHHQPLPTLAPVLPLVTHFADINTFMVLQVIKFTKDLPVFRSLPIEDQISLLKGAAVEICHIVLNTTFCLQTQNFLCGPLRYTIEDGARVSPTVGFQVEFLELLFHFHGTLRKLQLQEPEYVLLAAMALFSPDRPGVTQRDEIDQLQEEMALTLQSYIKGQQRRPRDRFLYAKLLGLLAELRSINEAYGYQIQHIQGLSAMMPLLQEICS
Procedure: as §3, §4

[12] = test system: ABCB11; assay: CLZD_ABCB11: Change in expression of ABCB11 (primary human hepatocytes); assay type: cell-based; settings: 24 hr
Procedure: This is a collection of multiplexed gene expression assays focused on Phase I and II xenobiotic metabolizing enzymes and transporters. Human primary cell cultures were treated with chemicals at 5 concentrations (0.004-40 [drawing 42] M) for 6, 24 and 48 hr. Concentration- and time-response profiles of chemicals were measured by the expression of key nuclear receptor target genes, activities of CYP1A enzymes (EROD), and cell morphology. Fourteen gene targets were monitored by quantitative nuclease protection assay including: six representative cytochrome P-450 genes, four hepatic transporters, three Phase II conjugating enzymes, and one endogenous metabolism gene involved in cholesterol synthesis. The target genes associated with nuclear receptor pathways are as follows: [drawing 43] and [drawing 44] with [drawing 45]; [drawing 46] , [drawing 47] , [drawing 48] , [drawing 49] , [drawing 50] and [drawing 51] with [drawing 52]; [drawing 53] , [drawing 54] , [drawing 55] and [drawing 56] with [drawing 57]; [drawing 58] with [drawing 59]; and [drawing 60] with [drawing 61] . Assays were run in primary human hepatocyte cultures by CellzDirect Invitrogen Inc. (Durham, NC), in collaboration with EPA.
Multiplexed Gene Expression in Human Primary Hepatocytes: This is a collection of multiplexed gene expression assays focused on Phase I and II metabolic enzymes and transporters. […] Fourteen gene targets were monitored by quantitative nuclease protection assay: six representative cytochrome P450 genes, four hepatic transporters, three Phase II conjugating enzymes, and one endogenous metabolism gene involved in cholesterol synthesis. Cells were exposed at 5 concentrations (0.004-40 µM) for 6, 24 or 48 hr. Gene targets are sentinels for five nuclear receptor signaling pathways: AhR, CAR, PXR, FXR, and PPARα. All gene are associated with nuclear receptor pathways: CYP1A1 and CYP1A2 with AHR; ABCB1, ABCG2, CYP2B6, CYP2C9, CYP2C19 and UGT1A1 with CAR; CYP3A4, GSTA2, SLCO1B1 and SULT2A1 with PXR; HMGCS2 with PPARA; and ABCB11 with FXR. […] Detailed description of the methods, data and analysis methods for this dataset will be presented in a separate publication.

[13] = test system: Rat Liver; settings: chronic study, rat liver; ref ToxRefDB; cited from earlier work; remark: listed apart in the source
[14] = biological target: T5, PPARG (peroxisome proliferator-activated receptor gamma) (Homo sapiens, UniProt P37231); assay: ATG_PPARg_TRANS: Factorial reporter gene assay (HepG2); assay type: cell-based; settings: HepG2 reporter
T5 construct: expressed in transfected cells; host or cells: HepG2
T5 sequence (P37231 1-505): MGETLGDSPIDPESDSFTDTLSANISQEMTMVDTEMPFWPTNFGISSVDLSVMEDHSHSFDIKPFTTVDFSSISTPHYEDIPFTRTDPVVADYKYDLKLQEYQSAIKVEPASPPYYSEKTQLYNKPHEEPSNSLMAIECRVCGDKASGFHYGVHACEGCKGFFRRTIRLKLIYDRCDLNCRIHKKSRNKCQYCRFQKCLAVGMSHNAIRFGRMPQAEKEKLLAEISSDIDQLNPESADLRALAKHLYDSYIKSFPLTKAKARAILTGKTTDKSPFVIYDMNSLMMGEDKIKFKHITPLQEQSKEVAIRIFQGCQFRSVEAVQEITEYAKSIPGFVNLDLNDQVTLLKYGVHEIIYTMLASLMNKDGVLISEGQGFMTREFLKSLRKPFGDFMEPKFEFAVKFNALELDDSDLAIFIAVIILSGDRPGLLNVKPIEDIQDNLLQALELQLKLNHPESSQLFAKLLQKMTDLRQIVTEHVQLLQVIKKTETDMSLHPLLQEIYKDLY
Method in brief: as §2

| Compound | CLZD_CYP3A4_24 [1] | CLZD_CYP1A2_24 [2] | NCGC_ERalpha_Agonist [3] | ATG_PXRE_CIS ([4]; HepG2) | ATG_ERE_CIS ([5]; HepG2) | CLZD_CYP2B6_24 [6] | ATG_ERa_TRANS ([7]; HepG2) | NCGC_ERalpha_Antagonist [8] | CHR_Rat_Liver_3_NeoplasticLesion [9] | CHR_Rat_Liver_2_PreneoplasticLesion [10] | ATG_PBREM_CIS [11] | CLZD_ABCB11_24 [12] | CHR_Rat_Liver_1_AnyLesion [13] | ATG_PXRE_CIS ([4]; HepG2 reporter) | ATG_PPARg_TRANS [14] | ATG_ERE_CIS ([5]; HepG2 reporter) | ATG_ERa_TRANS ([7]; HepG2 reporter) |
| --- | --- | --- | --- | --- | --- | --- | --- | --- | --- | --- | --- | --- | --- | --- | --- | --- | --- |
| COc1ccc(C(c2ccc(OC)cc2)C(Cl)(Cl)Cl)cc1 [row 201] | 4.692 | 5.201 | 5.406 | 5.036 | 5.398 | 5.24 | 5.569 | 4.409 | – | – | – | – | – | – | – | – | – |
| CC(C)(C)c1ccc(CSc2cnn(C(C)(C)C)c(=O)c2Cl)cc1 [r272] | – | – | – | – | – | – | – | 5.155 | 0 | 0 | 5.699 | 5.168 | 0 | 5.444 | 4.854 | 4.959 | 4.367 |
